Source: article PMC8911181, “A Novel CDK4/6 and PARP Dual Inhibitor ZC-22 Effectively Suppresses Tumor Growth and Improves the Response to Cisplatin Treatment in Breast and Ovarian Cancer” (International Journal of Molecular Sciences, 2022)

Tests used:
OVCAR5 xenograft tumors = experiment: Ovarian cancer xenograft mouse model, tumor growth; format: in vivo, mice; conditions: 1.5 mg/kg cisplatin and 50 mg/kg ZC-22 ip
Method: Six-week-old female athymic nude mice (Homozygous) were purchase from Vital River Laboratories (Beijing, China) and maintained under the guidelines for laboratory animals of Nankai university (NKU). Mice were injected subcutaneously with 2 × 10^6 MDA-MB-231 or 8 × 10^6 OVCAR5 cells. When tumors were 50–100 mm^3 in size, the mice were randomly grouped and treated intraperitoneal (i.p.) with 50 mg/kg of Olaparib, 50 mg/kg of LY2835219, 50 mg/kg of ZC-22, or 1.5 mg/kg of cisplatin alone or in combinations or with the vehicle (PBS containing 10% DMSO and 10% 2-hydroxy-propyl-β-cyclodextrin) every 2 days. Tumor volume was measured every 3–4 days, which was calculated as Length × Width^2/2. At the end of the study, tumor and major organ tissues were harvested by surgery. For histopathological analysis, tissue samples were washed with PBS, fixed in 4% paraformaldehyde (PFA), paraffin-embedded, and sectioned into 7 μm thickness. […]
Figure 7 ZC-22 increases the efficacy of cisplatin treatment in ovarian cancer cells in vivo. […] Tumor volumes were measured every 2–3 days. […] (B,C) Pictures (B) and quantification of the size (C) of the OVCAR5 xenograft tumors at the end points. […] (D,E) Representative pictures (D) and quantification of percentage (E) of Ki67 and γH2A.X-positive cells in immunohistochemical staining of the OVCAR5 xenograft tumor tissues. […]

[1] = Body weight and histological analysis (H&E) of major organs, MDA-MB-231 tumor-bearing mice; format: in vivo; conditions: ZC-22 monotherapy 50 mg/kg ip
Method: To detect the safety of ZC-22 monotherapy or combination therapy, sections of mouse heart, liver, spleen, lung, and kidney tissues were stained with hematoxylin and eosin (H&E) and then analyzed by microscopy.
Figure S3. ZC-22 inhibits signaling of CDK4/6 and PARP in xenograft tumors of breast cancer. Female NOD-SCID mice were injected subcutaneously with 2×10^6 of MDA-MB-231 cells and treated ip daily with 50 mg/kg of Olaparib (OLA) or LY2835219 (LY-2) alone or together (OLA+LY-2), or ZC-22 starting on day 10 after injection of cells when tumors were 50–80 mm3 in size. Representative pictures of (A) and quantification of percentage of (B) phosphorylated Rb (p-Rb)-positive cells in immunohistochemical staining of the MDA-MB-231 xenograft tumor tissues. Values are means ± SEM, n = 6. ns, not significant, and *** p < 0.001 in the unpaired t-test. (C) Western blot analysis of p-Rb (Left) and PAR (Right) in the MDA-MB-231 xenograft tumor tissues with indicated treatment.
(D) Body weights of MDA-MB-231 tumor burden mice with indicated treatment. Values are means ± SD, n = 6. ns, not significant in unpaired t-test. (E) H&E staining of the heart, liver, spleen, lung, and kidney tissues of tumor-bearing mice treated with DMSO or ZC-22, showing the lack of toxicity of ZC-22 treatment.
Figure S4. ZC-22 increases the sensitivity of breast and ovarian cancer cells to cisplatin. […]

[2] = test system: MDA-MB-231 xenograft tumors; experiment: Breast cancer xenograft mouse model, tumor growth; format: in vivo, mice
Method: Six-week-old female athymic nude mice (Homozygous) were purchase from Vital River Laboratories (Beijing, China) and maintained under the guidelines for laboratory animals of Nankai university (NKU). Mice were injected subcutaneously with 2 × 10^6 MDA-MB-231 or 8 × 10^6 OVCAR5 cells. When tumors were 50–100 mm^3 in size, the mice were randomly grouped and treated intraperitoneal (i.p.) with 50 mg/kg of Olaparib, 50 mg/kg of LY2835219, 50 mg/kg of ZC-22, or 1.5 mg/kg of cisplatin alone or in combinations or with the vehicle (PBS containing 10% DMSO and 10% 2-hydroxy-propyl-β-cyclodextrin) every 2 days. Tumor volume was measured every 3–4 days, which was calculated as Length × Width^2/2. At the end of the study, tumor and major organ tissues were harvested by surgery. For histopathological analysis, tissue samples were washed with PBS, fixed in 4% paraformaldehyde (PFA), paraffin-embedded, and sectioned into 7 μm thickness. For Western blot analysis, the tissue samples were dissociated by a tissue-tearor in RIPA buffer containing 1×protease and phosphatase inhibitors.
Figure 4 ZC-22 suppresses growth of breast cancer xenografts. Female NOD-SCID mice were injected subcutaneously with 2 × 10^6 of MDA-MB-231 cells and treated ip daily with 50 mg/kg of Olaparib (OLA) or LY2835219 (LY-2) alone or together (OLA + LY-2) or with ZC-22 alone starting on day 10 after injection of cells when tumors were 50–80 mm^3 in size. Tumor volumes were measured every 2–3 days. […] (B,C) Pictures of (B) and quantification of the size of (C) the MDA-MB-231 xenograft tumors at the end points. […] (E) Quantification of Ki67 (Left) and γH2A.X (Right)-positive cells in immunohistochemical staining of the xenograft tumor tissues. […]
Figure 6 ZC-22 sensitizes breast cancer cells to cisplatin treatment in vivo. […] Tumor volumes were measured every 2–3 days. […] (B,C) Pictures (B) and quantification of the size (C) of the MDA-MB-231 xenograft tumors at the end points. […] (E) Quantification of Ki67 (left) and γH2A.X (right)-positive cells in immunohistochemical staining of the xenograft tumor tissues. […]

Cc1nc2c(F)cc(-c3nc(Nc4ccc(N5CCN(C(=O)c6cc(Cc7n[nH]c(=O)c8ccccc78)ccc6F)CC5)cn4)ncc3F)cc2n1C(C)C [ZC-22, 4-(4-fluoro-3-(4-(6-((5-fluoro-4-(4-fluoro-1-isopropyl-2-methyl-1H-benzo[d]imidazole-6-yl)pyrimidin-2-yl)amino)pyridin-3-yl)piperazine-1-carbonyl)benzyl)phthalazin-1(2H)-one]
sensitization to cisplatin treatment (tumor growth) (OVCAR5 xenograft tumors): significantly sensitized ovarian cancer cells to cisplatin treatment
toxicity (body weight, histology of major organs) [1]: no obvious toxicity
growth of the xenograft tumors ([2]; 1.5 mg/kg cisplatin or 50 mg/kg ZC-22 ip alone or together): effectively inhibit growth of the xenograft tumors
anti-tumor efficacy (tumor growth) ([2]; 50 mg/kg ip, Olaparib and LY2835219 alone or together, or ZC-22): even higher therapeutic efficacy than combined Olaparib and Abemaciclib therapy
